Data on 1 molecule can be found in patent publication US20030071268A1, “Optical data storage medium containing a diaza hemicyanine dye as the light-absorbing compound in the information layer” (priority 2001, published 2003).

Holding throughout (type): physicochemical
A short description of series [1]: absorption spectra measured in solution. The procedure: (§1) For a recordable optical data storage medium according to the invention which is recorded on and read using light from a blue laser, such diaza hemicyanine dyes are preferred whose absorption maximum λmax2 is in the range from 420 to 550 nm, wherein the wavelength λ½ at which the extinction on the short-wavelength slope of the absorption maximum of the wavelength λmax2 is half the extinction value at λmax2, and the wavelength λ 1/10, at which the extinction on the short-wavelength slope of the absorption maximum of the wavelength λmax2 is a tenth of the extinction value at λmax2, are preferably in each case no further than 50 nm away from each other.
as §1, with “a red” for “a blue”, “from 500” for “from 420”, “to 650” for “to 550”, “the long-wavelength” for “the short-wavelength”, “50 mn” for “50 nm”, “other. […]” for “other.”
The absorption spectra are, for example, measured in solution.

Series [2] is described as follows: solubility in TFP (2,2,3,3-tetrafluoropropanol).
A further series in a line: film appearance. The text has this:
In addition to the above-mentioned optical properties, the recordable information layer consisting of light-absorbing organic substances must have a morphology which is as amorphous as possible, in order to keep the noise signal during recording or reading as small as possible. For this purpose it is particularly preferable, when applying the substances by spin-coating from a solution or by vapour deposition and/or sublimation, to prevent crystallization of the light-absorbing substances during the subsequent top-coating with metallic or dielectric layers in vacuo.

As for `CC(C)N(c1n[n+](C)c(/N=N/c2sc(N3CCOCC3)nc2-c2ccccc2)s1)C(C)C` [Example 1], in series [1] (Example 1), the ε is 30100 mol⁻¹ cm⁻¹. The λmax in series [1] (in methanol) is 592 nm. The same molecule yielded a Solubility in series [2] of more than 2%. For the same molecule, the film appearance entry in “film appearance” was “a glassy film”.
